The structures appear in SMILES notation.

The target of this experiment is T1, JAK3 (Homo sapiens, UniProt P52333).
T1 sequence (P52333 1-1124): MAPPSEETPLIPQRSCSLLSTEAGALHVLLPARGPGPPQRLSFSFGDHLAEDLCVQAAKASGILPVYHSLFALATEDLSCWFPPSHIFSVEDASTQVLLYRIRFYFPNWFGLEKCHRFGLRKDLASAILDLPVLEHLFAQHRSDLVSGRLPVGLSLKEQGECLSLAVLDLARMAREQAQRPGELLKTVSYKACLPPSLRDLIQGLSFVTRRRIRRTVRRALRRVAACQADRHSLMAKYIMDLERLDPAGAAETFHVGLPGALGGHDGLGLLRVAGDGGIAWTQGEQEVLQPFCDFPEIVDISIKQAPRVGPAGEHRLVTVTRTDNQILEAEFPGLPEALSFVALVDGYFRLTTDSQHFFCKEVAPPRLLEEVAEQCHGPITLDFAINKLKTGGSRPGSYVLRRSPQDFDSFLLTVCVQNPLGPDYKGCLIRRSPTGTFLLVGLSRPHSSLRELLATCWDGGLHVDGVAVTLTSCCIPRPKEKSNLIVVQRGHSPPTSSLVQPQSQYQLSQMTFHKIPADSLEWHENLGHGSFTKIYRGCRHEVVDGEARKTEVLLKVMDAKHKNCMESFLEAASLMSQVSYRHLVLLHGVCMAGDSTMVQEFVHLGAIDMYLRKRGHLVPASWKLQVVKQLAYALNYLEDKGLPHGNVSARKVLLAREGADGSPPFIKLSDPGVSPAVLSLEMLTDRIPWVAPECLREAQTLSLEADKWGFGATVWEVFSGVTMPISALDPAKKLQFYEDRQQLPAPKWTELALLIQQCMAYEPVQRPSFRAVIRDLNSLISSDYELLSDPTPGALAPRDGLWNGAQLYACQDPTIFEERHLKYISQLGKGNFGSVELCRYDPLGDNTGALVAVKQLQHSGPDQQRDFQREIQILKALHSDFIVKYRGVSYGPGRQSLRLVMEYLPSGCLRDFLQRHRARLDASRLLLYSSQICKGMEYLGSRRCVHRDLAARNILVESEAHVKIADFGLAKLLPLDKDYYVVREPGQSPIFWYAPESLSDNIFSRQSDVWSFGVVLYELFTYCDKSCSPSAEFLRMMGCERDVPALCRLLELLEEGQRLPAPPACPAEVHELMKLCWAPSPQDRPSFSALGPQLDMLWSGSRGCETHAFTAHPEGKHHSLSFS
Nature of the experiment: JAK3 IL-2-NK-92/pSTAT5 cell-based assay (Cellomics ArrayScan HCS). Details: host or cells: NK-92 (natural killer) cells. An excerpt:
IL-2 activates the JAK3 pathway in natural killer (NK) cells to drive the NK and CD8 lymphocyte proliferation. Therefore, IL-2 stimulated NK92/pSTAT5 cell-based assay enables the evaluation of the JAK3 cellular activity of JAK compounds in vitro.
NK-92 (natural killer) cells (ATCC, Manassas, Va.) are maintained in minimum essential medium (MEM) Alpha with 15% fetal bovine serum, 15% Horse Serum and 1× antibiotic/antimycotic (Invitrogen, Carlsbad, Calif.). The medium is supplemented with IL-2 (R&D systems, Minneapolis, Minn.) for a final concentration of 4 ng/mL. Cells are kept at 37° C. with 5% CO2. Cells are starved in serum free medium to remove endogenous growth factors. NK-92 cells are counted and collected to seed 2×10^7 cells per 96-well plate at a density of 2×10^5 cells per well. The cells are rinsed twice with unsupplemented MEM Alpha (MEM Alpha) before suspending cells at a final concentration of 8×10^5 cells/mL in MEM Alpha with 0.6% serum (0.3% FBS, 0.3% horse serum). The diluted cells are added back to tissue culture flasks and incubated overnight at 37° C. Test compound is prepared in 100% DMSO at 10 mM concentration. […] An aliquot of 200 μL of 1 to 10 dilution of Mouse anti-pSTAT5 (pY694) Alexa Fluor 647® in fluorescence activated cell sorting (FACS) buffer is added to the cells. […] Mean fluorescent intensity data are collected and analyzed using Cellomics Arrayscan® VTi. […]

In general, IC50 refers to the concentration that inhibits the measured activity by half. For the compound `Cc1cc(Nc2ccc3ncn([C@@H]4CCc5ccc(F)cc54)c3n2)[nH]n1.Cl.Cl` [Example 1, 3-[(1R)-6-fluoro-2,3-dihydro-1H-inden-1-yl]-N-(3-methyl-1H-pyrazol-5-yl)-3H-imidazo[4,5-b]pyridin-5-amine dihydrochloride], for the setting “NK-92 cells, IL-2 at 0.5 ng/mL, relative IC50, n=61, read-out: IC50, inhibits JAK3 (pSTAT5)”, the half-inhibitory concentration (IC50) came out at 228 nM. The “ratio of JAK3/JAK2 IC50” value (from the two cell-based assays (EPO-TF1/pSTAT5 and IL-2-NK-92/pSTAT5)) was “more than six-fold”.

The record behind these values is patent publication US9062050B2, “Inhibitor of JAK1 and JAK2” (Eli Lilly and Company, priority 2012, dated 2015).
